# Tests used:
# MV-4-11 = assay: Cell viability assay (resazurin, leukemia cell lines), 72 h growth inhibition; assay type: cell-based; conditions: Homo sapiens, MV4-11, MV-4-11 cells
# Source text: Compounds from Example 1 may be subjected to a standard MTT (3-(4,5-dimethylthiazol-2-yl)-2,5-diphenyltetrazolium bromide) and resazurin assays on solid tumour cell lines and leukemia cell lines, respectively, as previously reported (Wang S et al., J Med Chem 47:1662-1675, 2004 and Diab S e al. CheMedChem 9:962-972, 2014). Compound concentrations required to inhibit 50% of cell growth (GI50) can be calculated using non-linear regression analysis.
# CDK8/CycC = molecular target: T1, CDK8/CycC (Homo sapiens, UniProt P49336); assay: Radiometric protein kinase assay (33PanQinase Activity Assay, ProQinase); assay type: biochemical; conditions: 1.0 μM ATP, 1.0 μg/50 μL substrate RBER-IRStide, duplicate measurements, read-out: CDK8 Kinase inhibition IC50
# T1 construct: purchased ProQinase GmbH, Freiburg, Germany
# Experimental: The kinase activity of CDK8/CycC was measured using a radiometric protein kinase assay (33PanQinase® Activity Assay) by ProQinase GmbH, Freiburg, Germany, with the protocols shown at www.proqinase.com/sites/default/files/public/uploads/WildtypeProfiler/radiometric_assay_v05_2012_manual.pdf. IC50 determination (8.3 nM with 1.0 μM ATP and 1.0 μg/50 μL of substrate RBER-IRStide) was performed as duplicate measurements and calculated using Quattro Workflow V3.1.1 (Quattro Research GmbH, Germany). Apparent inhibition constants (Ki) values were calculated from Km (ATP) and IC50 values for the respective kinases.
# T1 sequence (P49336 whole entry): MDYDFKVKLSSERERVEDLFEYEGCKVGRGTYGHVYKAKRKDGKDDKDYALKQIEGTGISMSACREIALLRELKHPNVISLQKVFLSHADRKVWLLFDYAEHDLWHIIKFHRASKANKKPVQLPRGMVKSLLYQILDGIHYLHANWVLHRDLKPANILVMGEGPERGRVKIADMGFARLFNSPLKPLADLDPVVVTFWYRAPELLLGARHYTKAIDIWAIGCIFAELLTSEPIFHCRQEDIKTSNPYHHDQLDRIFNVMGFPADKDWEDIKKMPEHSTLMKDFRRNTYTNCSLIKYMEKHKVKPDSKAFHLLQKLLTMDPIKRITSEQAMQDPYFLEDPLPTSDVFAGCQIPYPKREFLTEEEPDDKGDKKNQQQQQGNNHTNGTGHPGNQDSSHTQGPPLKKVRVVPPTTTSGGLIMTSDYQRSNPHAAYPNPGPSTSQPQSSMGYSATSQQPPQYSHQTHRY
# T1 sequence (P24863 whole entry partner): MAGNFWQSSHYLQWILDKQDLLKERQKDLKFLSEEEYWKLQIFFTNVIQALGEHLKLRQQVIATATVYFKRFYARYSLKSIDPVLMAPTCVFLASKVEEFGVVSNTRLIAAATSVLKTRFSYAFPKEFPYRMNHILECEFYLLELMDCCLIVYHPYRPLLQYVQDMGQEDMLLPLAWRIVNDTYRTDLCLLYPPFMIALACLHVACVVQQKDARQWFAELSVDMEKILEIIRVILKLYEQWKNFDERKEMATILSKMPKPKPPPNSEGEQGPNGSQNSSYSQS
SMILES,GI50 (MV-4-11),IC50 (CDK8/CycC)
"CNc1ncc(C#N)c(-c2sc(NC(=O)Nc3ccc(CN4CCN(S(C)(=O)=O)CC4)c(C(F)(F)F)c3)nc2C)n1 [Compound 74, 1-(5-(5-Cyano-2-(methylamino)pyrimidin-4-yl)-4-methylthiazol-2-yl)-3-(4-((4-(methylsulfonyl)piperazin-1-yl)methyl)-3-(trifluoromethyl)phenyl)urea]",3250 ± 350 nM,272 nM
"CNc1ncc(Cl)c(-c2sc(NC(=O)Nc3ccc(CN4CCN(C)CC4)c(C(F)(F)F)c3)nc2C)n1 [Compound 65, 1-(5-(5-Chloro-2-(methylamino)pyrimidin-4-yl)-4-methylthiazol-2-yl)-3-(4-((4-methylpiperazin-1-yl)methyl)-3-(trifluoromethyl)phenyl)urea]",55 ± 10 nM,15 nM
"CNc1ncc(C#N)c(-c2sc(NC(=O)Nc3ccc(CN4CCN(C(C)C)CC4)c(C(F)(F)F)c3)nc2C)n1 [Compound 73, 1-(5-(5-Cyano-2-(methylamino)pyrimidin-4-yl)-4-methylthiazol-2-yl)-3-(4-((4-isopropylpiperazin-1-yl)methyl)-3-(trifluoromethyl)phenyl)urea]",482 ± 30 nM,59 nM
"CCNc1nccc(-c2sc(NC(=O)Nc3ccc(CN4CCN(CC)CC4)c(C(F)(F)F)c3)nc2C)n1 [Compound 53, 1-(5-(2-(Ethylamino)pyrimidin-4-yl)-4-methylthiazol-2-yl)-3-(4-((4-ethylpiperazin-1-yl)methyl)-3-(trifluoromethyl)phenyl)urea]",< 1 nM,90 nM
"Cc1nc(NC(=O)Nc2ccc(CN3CCN(S(C)(=O)=O)CC3)c(C(F)(F)F)c2)sc1-c1ccnc(C(C)C)n1 [Compound 78, 1-(5-(2-Isopropylpyrimidin-4-yl)-4-methylthiazol-2-yl)-3-(4-((4-(methylsulfonyl)-piperazin-1-yl)methyl)-3-(trifluoromethyl)phenyl)urea]",1590 ± 90 nM,293 nM
"CCNc1nccc(-c2sc(NC(=O)Nc3ccc(CN4CCN(C(C)=O)CC4)c(C(F)(F)F)c3)nc2C)n1 [Compound 55, 1-(4-((4-Acetylpiperazin-1-yl)methyl)-3-(trifluoromethyl)-phenyl)-3-(5-(2-(ethylamino)-pyrimidin-4-yl)-4-methylthiazol-2-yl)urea]",214 ± 120 nM,35 nM
"CNc1ncc(Cl)c(-c2sc(NC(=O)Nc3ccc(CN4CCN(C(C)C)CC4)c(C(F)(F)F)c3)nc2C)n1 [Compound 67, 1-(5-(5-Chloro-2-(methylamino)pyrimidin-4-yl)-4-methylthiazol-2-yl)-3-(4-((4-isopropylpiperazin-1-yl)methyl)-3-(trifluoromethyl)phenyl)urea]",174 ± 10 nM,30 nM
"CNc1nccc(-c2sc(NC(=O)Nc3ccc(CN4CCC(N)CC4)c(C(F)(F)F)c3)nc2C)n1 [Compound 39, 1-(4-((4-Aminopiperidin-1-yl)methyl)-3-(trifluoromethyl)-phenyl)-3-(4-methyl-5-(2-(methylamino)pyrimidin-4-yl)thiazol-2-yl)urea]",96 nM,8 nM
"CSc1nccc(-c2sc(NC(=O)Nc3ccc(CN4CCN(C)CC4)c(C(F)(F)F)c3)nc2C)n1 [Compound 80, 1-(4-Methyl-5-(2-(methylthio)pyrimidin-4-yl)thiazol-2-yl)-3-(4-((4-methyl-piperazin-1-yl)methyl)-3-(trifluoromethyl)phenyl)urea]",1 nM,79 nM
"CNc1ncc(Cl)c(-c2sc(NC(=O)Nc3ccc(CN4CCN(C(C)=O)CC4)c(C(F)(F)F)c3)nc2C)n1 [Compound 68, 1-(4-((4-Acetylpiperazin-1-yl)methyl)-3-(trifluoromethyl)phenyl)-3-(5-(5-chloro-2-(methylamino)pyrimidin-4-yl)-4-methylthiazol-2-yl)urea]",4250 ± 420 nM,80 nM
"CNc1nccc(-c2sc(NC(=O)Nc3ccc(CN4CCCCC4)c(C(F)(F)F)c3)nc2C)n1 [Compound 38, 1-(4-Methyl-5-(2-(methylamino)-pyrimidin-4-yl)thiazol-2-yl)-3-(4-(piperidin-1-ylmethyl)-3-(trifluoromethyl)phenyl)urea]",994 ± 130 nM,
"CSc1nccc(-c2sc(NC(=O)Nc3ccc(CN4CCN(S(C)(=O)=O)CC4)c(C(F)(F)F)c3)nc2C)n1 [Compound 82, 1-(4-Methyl-5-(2-(methylthio)pyrimidin-4-yl)thiazol-2-yl)-3-(4-((4-(methyl-sulfonyl)piperazin-1-yl)methyl)-3-(trifluoromethyl)phenyl)urea]",721 ± 30 nM,220 nM
"CNc1nccc(-c2cnc(NC(=O)Nc3ccc(CN4CCN(C)CC4)c(C(F)(F)F)c3)s2)n1 [Compound 58, 1-(5-(2-(Methylamino)pyrimidin-4-yl)thiazol-2-yl)-3-(4-((4-methylpiperazin-1-yl)methyl)-3-(trifluoromethyl)phenyl)urea]",1 nM,7 nM
"CNc1nccc(-c2sc(NC(=O)Nc3ccccc3C(F)(F)F)nc2C)n1 [Compound 2, 1-(4-Methyl-5-(2-(methylamino)-pyrimidin-4-yl)thiazol-2-yl)-3-(2-(trifluoromethyl)phenyl)urea]",,1360 nM
"CNc1ncc(F)c(-c2sc(NC(=O)Nc3ccc(CN4CCOCC4)c(C(F)(F)F)c3)nc2C)n1 [Compound 70, 1-(5-(5-Fluoro-2-(methylamino)pyrimidin-4-yl)-4-methylthiazol-2-yl)-3-(4-(morpholinomethyl)-3-(trifluoromethyl)phenyl)urea]",273 ± 10 nM,25 nM
"CNc1ncc(Cl)c(-c2sc(NC(=O)Nc3ccc(CN4CCN(S(C)(=O)=O)CC4)c(C(F)(F)F)c3)nc2C)n1 [Compound 69, 1-(5-(5-Chloro-2-(methylamino)pyrimidin-4-yl)-4-methylthiazol-2-yl)-3-(4-((4-(methylsulfonyl)piperazin-1-yl)methyl)-3-(trifluoromethyl)phenyl)urea]",4690 ± 420 nM,132 nM
"CCN1CCN(Cc2ccc(NC(=O)Nc3nc(C)c(-c4ccnc(N)n4)s3)cc2C(F)(F)F)CC1 [Compound 62, 1-(5-(2-Aminopyrimidin-4-yl)-4-methylthiazol-2-yl)-3-(4-((4-ethylpiperazin-1-yl)methyl)-3-(trifluoromethyl)phenyl)urea]",1 nM,14 nM
"CCN1CCN(Cc2ccc(NC(=O)Nc3ncc(-c4ccnc(NC)n4)s3)cc2C(F)(F)F)CC1 [Compound 59, 1-(4-((4-Ethylpiperazin-1-yl)methyl)-3-(trifluoromethyl)phenyl)-3-(5-(2-(methylamino)pyrimidin-4-yl)thiazol-2-yl)urea]",1 nM,12 nM
"Cc1nc(NC(=O)Nc2ccc(CN3CCOCC3)c(C(F)(F)F)c2)sc1-c1ccnc(C(C)C)n1 [Compound 79, 1-(5-(2-Isopropylpyrimidin-4-yl)-4-methylthiazol-2-yl)-3-(4-(morpholinomethyl)-3-(trifluoromethyl)phenyl)urea]",998 ± 60 nM,206 nM
"Cc1nc(NC(=O)Nc2ccc(CN3CCOCC3)c(C(F)(F)F)c2)sc1-c1ccnc(N)n1 [Compound 64, 1-(5-(2-Aminopyrimidin-4-yl)-4-methylthiazol-2-yl)-3-(4-(morpholinomethyl)-3-(trifluoromethyl)phenyl)urea]",275 ± 50 nM,15 nM
"Cc1nc(NC(=O)Nc2ccc(CN3CCN(C(C)C)CC3)c(C(F)(F)F)c2)sc1-c1ccnc(N)n1 [Compound 63, 1-(5-(2-Aminopyrimidin-4-yl)-4-methylthiazol-2-yl)-3-(4-((4-isopropylpiperazin-1-yl)methyl)-3-(trifluoromethyl)phenyl)urea]",3 nM,13 nM
"CSc1nccc(-c2sc(NC(=O)Nc3ccc(CN4CCOCC4)c(C(F)(F)F)c3)nc2C)n1 [Compound 83, 1-(4-Methyl-5-(2-(methylthio)pyrimidin-4-yl)thiazol-2-yl)-3-(4-(morpholinomethyl)-3-(trifluoromethyl)phenyl)urea]",1560 ± 100 nM,121 nM
"CNc1nccc(-c2sc(NC(=O)Nc3ccc(CN4CCN(C(C)C)CC4)c(C(F)(F)F)c3)nc2C)n1 [Compound 34, 1-(4-((4-Isopropylpiperazin-1-yl)methyl)-3-(trifluoromethyl)-phenyl)-3-(4-methyl-5-(2-(methylamino)pyrimidin-4-yl)thiazol-2-yl)urea]",< 1 nM,11 nM
"CNc1nccc(-c2sc(NC(=O)Nc3ccc(F)cc3C)nc2C)n1 [Compound 6, 1-(4-Fluoro-2-methylphenyl)-3-(4-methyl-5-(2-(methylamino)-pyrimidin-4-yl)thiazol-2-yl)urea]",,233 nM
"CNc1nccc(-c2sc(NC(=O)Nc3ccc(C(F)(F)F)cc3C(F)(F)F)nc2C)n1 [Compound 8, 1-(2,4-Bis(trifluoromethyl)phenyl)-3-(4-methyl-5-(2-(methylamino)-pyrimidin-4-yl)thiazol-2-yl)urea]",,65 nM
"CNc1nccc(-c2sc(NC(=O)Nc3ccc(F)cc3C(F)(F)F)nc2C)n1 [Compound 7, 1-(4-fluoro-2-(trifluoromethyl)-phenyl)-3-(4-methyl-5-(2-(methylamino)-pyrimidin-4-yl)thiazol-2-yl)urea]",,2300 nM
"CNc1nccc(-c2sc(NC(=O)Nc3ccc(C(F)(F)F)cc3)nc2C)n1 [Compound 41, 1-(4-Methyl-5-(2-(methylamino)pyrimidin-4-yl)thiazol-2-yl)-3-(4-(trifluoromethyl)phenyl)urea]",,19 nM

# — patent publication US11325900B2, “5-(pyrimidin-4-yl)thiazol-2-yl urea derivatives as therapeutic agents” (AUCENTRA HOLDINGS PTY LTD, priority 2018, dated 2022)
